According to patent publication US20220132898A1, “COMPOSITION COMPRISING TRANSGLYCOSYLATED STEVIOSIDE AND TRANSGLYCOSYLATED REBAUDIOSIDE A” (CJ CHEILJEDANG CORPORATION, priority 2019, published 2022):
Entries after “also recorded” stand apart in the source; their conditions may differ.

Key:
[1] = assay type: physicochemical
Protocol: The solubility of Rebaudioside A (RA), Stevioside (STV), α-1,6 transglucosylated Rebaudioside A (RA-Glu) of Example 1-1, and transglucosylated Stevioside (STV-Glu) was measured. In particular, the transglucosylated Stevioside was obtained by reacting Stevioside and sucrose in the presence of a glucosyltransferase in the same manner as in Example 1-1.
6 g of each of Rebaudioside A, Stevioside, transglucosylated Rebaudioside A, and transglucosylated Stevioside was mixed with 10 ml and then dissolved by sonication at 50° C. for 60 minutes. The resultant was incubated for 1 week in a water bath at 5° C., 15° C., 25° C., 35° C., 45° C., or 55° C. Thereafter, the resulting solution was centrifuged at 12000 rpm for 10 minutes, and 1 ml of the supernatant was collected and dried in an oven at 105° C. to measure the solubility.

[2] = Evaluation of actual sweetness and quality of sweetness by panels; assay type: in vivo; conditions: sample dissolved in water, evaluated by panels
Text: Two samples prepared in Example 1-1 above were independently dissolved in water and provided to panels for evaluation of actual sweetness and the quality of sweetness.

Solubility (%) [1]	solubility as compared to Stevioside and Rebaudioside A, respectively [1]	Substance	Actual Sweetness [2]	Quality of Sweetness [2]
≥ 40↑ %	remarkably increased solubility	transglucosylated Stevioside [STV-Glu]	–	–
–	–	α-1,4 transglucosylated Rebaudioside A	19	Bitter taste is stronger than sweet taste, has greasy
≥ 40↑ %	remarkably increased solubility	α-1,6 transglucosylated Rebaudioside A [RA-Glu]	–	better quality of sweetness; also recorded: Gives sweet taste in the beginning, has a bit of bitter
